We go through 17 compounds from ChEMBL document CHEMBL1136132, “Effect of structural modification on the inhibitory selectivity of rutaecarpine derivatives on human CYP1A1, CYP1A2, and CYP1B1” (Bioorg Med Chem Lett, 2003).

Test [1] deals with T1, Cytochrome P450 1A1 (Homo sapiens, UniProt P04798).
T1 sequence (P04798 whole entry): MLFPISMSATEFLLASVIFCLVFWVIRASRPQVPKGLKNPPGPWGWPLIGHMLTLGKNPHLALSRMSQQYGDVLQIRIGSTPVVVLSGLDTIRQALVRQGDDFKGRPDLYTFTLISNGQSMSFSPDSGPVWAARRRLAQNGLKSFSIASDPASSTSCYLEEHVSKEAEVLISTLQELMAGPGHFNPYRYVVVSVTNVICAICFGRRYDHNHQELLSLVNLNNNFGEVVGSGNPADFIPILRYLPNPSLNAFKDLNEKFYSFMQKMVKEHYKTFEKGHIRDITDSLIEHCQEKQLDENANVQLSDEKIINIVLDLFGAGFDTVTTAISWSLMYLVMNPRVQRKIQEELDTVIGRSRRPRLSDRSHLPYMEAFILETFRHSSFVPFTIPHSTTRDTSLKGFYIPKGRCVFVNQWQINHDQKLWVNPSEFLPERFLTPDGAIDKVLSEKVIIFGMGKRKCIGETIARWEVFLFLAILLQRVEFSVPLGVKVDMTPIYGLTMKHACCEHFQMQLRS
Briefly: Inhibition of Cytochrome P450 1A1 enzyme in bacterial membrane expressing human P450s. The test is classed as ADME, cell membranes.

Test [2] is described as follows: Ratio for inhibition of Cytochrome P450 1A1 to that of Cytochrome P450 1A2. The test is classed as ADME.
Test [3] is described as follows: Ratio for inhibition of Cytochrome P450 1B1 to that of Cytochrome P450 1A2. The test is classed as ADME.
Test [4] has as its target T2, Cytochrome P450 1B1 (Homo sapiens, UniProt Q16678).
T2 sequence (Q16678 whole entry): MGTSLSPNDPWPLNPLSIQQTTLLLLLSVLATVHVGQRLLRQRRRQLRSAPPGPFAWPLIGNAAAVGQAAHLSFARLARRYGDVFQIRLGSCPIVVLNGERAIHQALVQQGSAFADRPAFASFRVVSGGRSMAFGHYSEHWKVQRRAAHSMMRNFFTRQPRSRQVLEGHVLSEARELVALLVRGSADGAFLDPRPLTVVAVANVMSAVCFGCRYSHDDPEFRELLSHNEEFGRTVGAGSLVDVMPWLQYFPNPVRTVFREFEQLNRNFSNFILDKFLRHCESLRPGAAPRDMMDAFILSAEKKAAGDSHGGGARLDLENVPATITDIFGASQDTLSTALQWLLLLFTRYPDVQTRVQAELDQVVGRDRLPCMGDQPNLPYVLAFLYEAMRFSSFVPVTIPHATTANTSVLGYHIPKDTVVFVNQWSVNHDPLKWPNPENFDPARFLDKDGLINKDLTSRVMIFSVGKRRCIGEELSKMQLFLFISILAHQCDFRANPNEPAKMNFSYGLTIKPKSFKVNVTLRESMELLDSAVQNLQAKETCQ
The test can be described thus: Inhibition of Cytochrome P450 1B1 enzyme in bacterial membrane expressing human P450s. The test is classed as ADME, cell membranes.

Test [5] deals with T3, Cytochrome P450 1A2 (Homo sapiens, UniProt P05177).
T3 sequence (P05177 whole entry): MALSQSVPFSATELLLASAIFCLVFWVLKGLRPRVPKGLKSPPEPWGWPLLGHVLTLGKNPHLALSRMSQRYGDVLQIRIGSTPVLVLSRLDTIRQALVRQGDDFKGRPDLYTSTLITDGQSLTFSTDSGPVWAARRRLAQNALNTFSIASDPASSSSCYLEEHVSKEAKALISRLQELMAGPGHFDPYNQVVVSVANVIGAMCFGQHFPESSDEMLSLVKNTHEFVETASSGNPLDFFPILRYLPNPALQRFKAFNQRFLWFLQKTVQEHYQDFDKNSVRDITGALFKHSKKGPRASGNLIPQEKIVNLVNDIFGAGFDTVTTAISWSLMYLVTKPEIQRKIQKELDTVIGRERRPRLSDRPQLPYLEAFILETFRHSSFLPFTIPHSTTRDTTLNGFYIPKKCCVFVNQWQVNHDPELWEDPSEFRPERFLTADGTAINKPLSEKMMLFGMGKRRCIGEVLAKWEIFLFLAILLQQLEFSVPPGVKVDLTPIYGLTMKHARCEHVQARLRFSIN
The test can be described thus: Inhibition of Cytochrome P450 1A2 enzyme in bacterial membrane expressing human P450s. The test is classed as ADME, cell membranes.

In test [6] the target is T2, Cytochrome P450 1B1. Briefly: Inhibition of human Cytochrome P450 1B1 expressed in bacterial membrane. The test is classed as ADME, cell membranes.

Bounds are passed on as bounds.

The term IC50 denotes the concentration that gives 50% inhibition. Higher therefore signals lower potency. In the case of `COc1ccc2c3c([nH]c2c1)-c1nc2ccccc2c(=O)n1CC3`, the IC50 in test [1] came out at 2 µM; in test [4], 0.11 µM; in test [5], 1.98 µM. In addition, the ratio worked out at 1 in test [2] and 0.06 in test [3].

Regarding `COc1ccc2c(=O)n3c(nc2c1)-c1[nH]c2ccccc2c1CC3`, the IC50 in test [1] is 0.85 µM; in test [4], 0.17 µM; in test [5], 0.076 µM. In addition, the ratio came to 11 in test [2] and 2 in test [3].

On to `COc1ccc2nc3n(c(=O)c2c1)CCc1c-3[nH]c2ccccc12`, for which the IC50 turned out to be 1.28 µM in test [1], 0.14 µM in test [4] and 0.28 µM in test [5]. The values for the ratio in test [2] and in test [3] were 5 and 0.5, respectively.

As to `COc1cccc2c(=O)n3c(nc12)-c1[nH]c2ccccc2c1CC3`, the results for the 50% inhibitory concentration (IC50) in test [1], in test [4] and in test [5] were 0.45 µM, 0.071 µM and 0.011 µM, respectively. For the same compound, the results for the ratio in test [2] and in test [3] were 45 and 7, respectively.

As for `COc1cc(OC)c2nc3n(c(=O)c2c1)CCc1c-3[nH]c2ccccc12`, the IC50 in test [1] turned out to be 0.42 µM; in test [4], 0.08 µM; in test [5], 0.041 µM. Also, the values for the ratio in test [2] and in test [3] were 11 and 2, respectively.

Take `COc1cc2nc3n(c(=O)c2cc1OC)CCc1c-3[nH]c2ccccc12`: the IC50 is 1.58 µM in test [1], 0.16 µM in test [4] and greater than 500 µM in test [5]. Also, the ratio was less than 0.003 in test [2] and less than 0.0003 in test [3].

Turning to `Oc1c2ccccc2nc2c3nc4ccccc4c-3ccn12`, the midpoint of inhibition in test [5], the IC50, lay at 0.03 µM.

As for `O=c1c2cc(Cl)ccc2nc2n1CCc1c-2[nH]c2ccccc12`, the IC50 was found to be 1.92 µM in test [1], 0.09 µM in test [4] and 0.029 µM in test [5]. In addition, the figures for the ratio in test [2] and in test [3] were 64 and 3, respectively.

Turning to `COc1ccc2c(=O)n3c(nc2c1OC)-c1[nH]c2ccccc2c1CC3`, the figures for the IC50 in test [1], in test [4] and in test [5] were 0.97 µM, 2.4 µM and 0.029 µM, respectively. Also, the ratio in test [2] was determined as 33; in test [3] it was 8.

Take `COc1ccc2[nH]c3c(c2c1)CCn1c-3nc2ccccc2c1=O`: the IC50 turned out to be 1.78 µM in test [1], 0.084 µM in test [6] and 2.92 µM in test [5]. The ratio was 0.6 in test [2] and 0.03 in test [3].

Consider `O=c1c2cc(Br)ccc2nc2n1CCc1c-2[nH]c2ccccc12`, for which the figures for the IC50 in test [1], in test [4] and in test [5] were 2.47 µM, 0.12 µM and 1.5 µM, respectively. Further, the ratio amounted to 16 in test [2] and 0.8 in test [3].

Take `COc1ccc2nc3n(c(=O)c2c1OC)CCc1c-3[nH]c2ccccc12`: the IC50 amounted to 0.87 µM in test [1], 0.14 µM in test [4] and 1.73 µM in test [5]. For the same compound, the ratio in test [2] came out at 0.5; in test [3], 0.08.

For `O=c1c2ccc(Cl)cc2nc2n1CCc1c-2[nH]c2ccccc12`, the IC50 turned out to be 1.2 µM in test [1], 0.037 µM in test [4] and 0.039 µM in test [5]. Further, the ratio in test [2] was 30; in test [3], 1.

As to `C[n+]1c2n(c(=O)c3ccccc31)CCc1c-2[nH]c2ccccc12` [DEHYDROEVODIAMINE], the IC50 was 18 µM in test [1], 0.33 µM in test [4] and 5.63 µM in test [5]. For the same compound, the ratio worked out at 3 in test [2] and 0.06 in test [3].

Regarding `CN1c2ccccc2C(=O)N2CCc3c([nH]c4ccccc34)[C@H]21` [EVODIAMINE], the IC50 in test [1] was determined as 24.6 µM; in test [4] it was 0.69 µM; in test [5], 16.3 µM.

In the case of `CN1c2ccccc2C(=O)N2CCc3c([nH]c4ccccc34)[C@@H]21` [EVODIAMINE], the figures for the ratio in test [2] and in test [3] were 2 and 0.04, respectively.

As for `O=c1c2ccccc2nc2n1CCc1c-2[nH]c2ccccc12` [RUTAECARPINE], the figures for the IC50 in test [1], in test [4] and in test [5] were 0.26 µM, 0.055 µM and 0.022 µM, respectively. For the same compound, the ratio in test [2] came out at 13; in test [3] it was 3.
